Data as given in patent publication US7771736B2, “Glyphosate formulations and their use for the inhibition of 5-enolpyruvylshikimate-3-phosphate synthase” (Monsanto Technology LLC, priority 2002, dated 2010).
Like-named read-outs stand apart in the source and are kept apart here.

Assays:
Cryptosporidium parvum = settings: cited from earlier work
Plasmodium falciparum = Plasmodium falciparum (malaria); cited from earlier work
Toxoplasma gondii = settings: cited from earlier work
different weed species = experiment: herbicidal efficacy in whole plants / on different weed species; type: in vivo; settings: for enhancement of glyphosate herbicidal efficacy: additive combined with glyphosate, whole plants / weed species
maize EPSPS = experiment: enzyme activity of maize EPSPS (HPLC radioassay, S3P and 14C-PEP) with oxalate or citrate in the presence and absence of glyphosate; type: biochemical; settings: for effect on the inhibition of EPSPS by glyphosate (rate of catalytic activity on S3P and PEP): additive with 0, 0.6 or 6 mcM glyphosate, relative rate normalized to zero glyphosate
Description: These examples assessed the enzyme activity of maize EPSPS with increasing concentrations of oxalate (0, 0.06 mcM, 0.3 mcM, 1.5 mcM, 7.5 mcM and 37.5 mcM) in the presence and absence of glyphosate. Three different conditions (0, 0.6 mcM, and 6 mcM glyphosate) were studied. The assay consisted of incubating enzyme (9 mcg/mL final concentration in the assay) with S3P and ^14C-PEP. The conversion of labeled substrate to 5-enol-[^14C]-pyruvylshikimate-3-phosphate was determined by HPLC radioassay.
Initial velocities were calculated by multiplying fractional turnover per unit time by the initial concentration of the labeled substrate. The data are expressed as relative rates of the enzyme, where relative rate is the reaction rate at a given condition normalized to similar reaction with zero glyphosate.

[1] = Metal Ion Mg2+; cited from earlier work
[2] = Metal Ion Ca2+; cited from earlier work

SMILES	growth inhibition of parasite (Cryptosporidium parvum)	growth inhibition of parasite (Plasmodium falciparum)	growth inhibition of parasite (Toxoplasma gondii)	enhancement of glyphosate herbicidal efficacy (different weed species)	effect on the inhibition of EPSPS by glyphosate (rate of catalytic activity on S3P and PEP) (maize EPSPS)	Log K (Binding Constant) [1]	Log K (Binding Constant) [2]	herbicidal property by itself (different weed species; additive alone, enzyme studies and whole plant response)	effect on the inhibition of EPSPS by glyphosate (rate of catalytic activity on S3P and PEP) (maize EPSPS; listed as oxalate)	inhibitory effect on the enzyme on its own (maize EPSPS; without glyphosate)
O=C(O)CNCP(=O)(O)O [glyphosate, N-phosphonomethyl glycine]	growth of these parasites can be inhibited	growth of these parasites can be inhibited	growth of these parasites can be inhibited	–	–	–	–	–	–	–
O=C(O)CC(O)(CC(=O)O)C(=O)O [Citric acid, citric acid]	–	–	–	failed to show enhancement of glyphosate efficacy on different weed species	did not have any effect on EPSPS inhibition by glyphosate	3.45	3.45	–	–	–
O=C(O)C(=O)O [Oxalic acid, oxalic acid]	–	–	–	enhance the inhibition of EPSPS by glyphosate as well as its herbicidal efficacy in whole plants	enhance the inhibition of EPSPS by glyphosate	2.76	2.46	does not have any herbicidal property	enhanced the enzyme binding of glyphosate	do not have any inhibitory effect on the enzyme on their own
